For one assay, the target named is T1, TRPV4 (Mus musculus, UniProt Q9EPK8).
T1 construct: host or cells: mice (lung), cited studies
The settings on record: mice treated with the TRPV4 antagonist; literature (Yin 2016); only protective if given preventatively; cited from earlier work.

Assay [1] has as its system eNOS phosphorylation at T495. In words: Western blot of pT495-eNOS in PAEC. Type of assay: cell-based, ovine. The settings on record: PMA 100 nM, 10, 30 and 60 minutes. As for the experimental part:
(§1) Primary cultures of ovine pulmonary arterial endothelial cells (PAEC) were isolated as described previously (L. K. Kelly, Am J Physiol Lung Cell Mol Physiol, 286(5), L984-91 (2004)). Briefly, cells were maintained in Dulbecco's modified Eagle medium (DMEM) supplemented with 10% fetal calf serum (Hyclone, Logan, UT), antibiotics/antimycotic (500 IU Penicillin, 500 μg/ml Streptomycin, 1.25 μg/ml Amphotericin B; MediaTech, Herndon, VA) at 37° C. in a humidified atmosphere with 5% CO2 and 95% air. Cells were used for experiments between passages 9-14, seeded at ˜50% confluence, and utilized when fully confluent.
Protein extracts were prepared using lysis buffer (50 mM Tris-HCl, pH 7.6, 0.5% Triton X-100, 20% glycerol) containing HALT™ protease inhibitor cocktail (Pierce Laboratories, Rockford, IL). The extracts were then subjected to centrifugation (15,000 g for 15 min at 4° C.). Supernatant fractions were assayed for protein concentration using the Bradford reagent (Bio-Rad, Richmond, CA) then used for Western blot analyses. Protein extracts (25-50 μg) were separated on Long-Life 4-20% Tris-SDS-Hepes gels and electrophoretically transferred to IMMUNO-BLOT™ PVDF membrane (Bio-Rad Laboratories, Hercules, CA) Immunoblotting was then carried out using the appropriate antibodies in Tris-base buffered saline with 0.1% Tween 20 and 5% nonfat milk. After washing, the membranes were probed with horseradish peroxidase-conjugated goat antiserum to rabbit or mouse. Reactive bands were visualized using chemiluminescence (Super Signal West Femto; Pierce, Rockford, IL) on a LI-COR Odyssey image station (Lincoln, NE). Bands were quantified using LI-COR Image Station software. Loading was normalized by reprobing the membranes with an antibody specific to β-actin.
(In general: Immunoblotting shows a protein as a band on a membrane.)

A further assay relates to NOS-derived superoxide. Kind of assay: NOS-derived superoxide by EPR (eNOS uncoupling) in PAEC. Type of assay: cell-based, ovine. The settings on record: PMA. As for the experimental part: as §1
Superoxide levels were estimated by electron paramagnetic resonance (EPR) assay using the spin-trap compound 1-hydroxy-3-methoxycarbonyl-2,2,5,5-tetramethylpyrrolidine HCl (CMH, Axxora) as described previously. Superoxide in PAEC was trapped by incubating PAEC with 20 μl of CMH stock solution (20 mg/ml) for 1 h, followed by trypsinization and centrifugation at 500 g. The cell pellet was suspended in 35 μl DPBS and loaded into a capillary tube which was then analyzed with a MiniScope MS200 EPR machine (Magnettech, Berlin, Germany). Pre-incubating cells or tissue with 100 μM ethylisothiourea (ETU, Sigma-Aldrich) for 30 min followed by incubation with CMH measured NOS-derived superoxide. EPR spectra were analyzed using ANALYSIS v.2.02 software (Magnettech). Differences between levels of samples incubated in the presence and absence of ETU were used to determine NOS-dependent superoxide generation.

Assay [2] deals with mitochondrial redistribution of eNOS. Kind of assay: Immunofluorescent microscopy of eNOS mitochondrial redistribution in PAEC. Type of assay: cell-based, ovine. The settings on record: PMA. As to the method: as §1
PAEC were grown on cover glass for three days after reaching 100% confluence, and fixed with 4% paraformaldehyde (Thermo Fisher Scientific) for 30 min, permeabilized with 100% cold methanol at −20° C. for 5 min Cell then blocked with 1% BSA for 1 hour, and later incubated with first antibody overnight at 4° C. then secondary antibody at room temperature for 1 hour. Finally, cells were mounted on microscope slides using ProLong Glass Antifade Mountant, (Invitrogen, Carlsbad, CA, Cat #P36980). […] The images were analyzed with ImagePro Plus 7.0 (W. Casavan, Microscopy Today, 11(6), 48-50 (2003)) or ImageJ software to evaluate the colocalization of fluorescent.

Another assay has as its system PAEC. Kind of assay: Mitochondrial bioenergetics (XF24 Analyzer, OCR) in PAEC. The class given is cell-based, ovine. The settings on record: PMA. As for the experimental part: as §1
The XF24 Analyzer (Seahorse Biosciences) and XF CELL MITO STRESS™ Test Kit (#101706-100; Seahorse Biosciences) were used for the mitochondrial bioenergetic analyses. The optimum number of cells/well was determined to be 75,000/0.32 cm^2. At the end of each study, the XF24 culture microplates were incubated in a CO2-free XF prep station at 37° C. for 45 min to allow temperature and pH calibration. Subsequently, each well was sequentially injected Oligomycin (1 μM final concentration), carbonyl cyanide 4-(trifluoromethoxy) phenylhydrazone (FCCP, 1 μM final concentration), and Rotenone+antimycin A (1 μM final concentration of each) and measured the oxygen consumption rate (OCR). These agents were used to determine basal mitochondrial respiration, reserve respiratory capacity and maximal respiratory capacity measurements in pmols/min of oxygen consumed.

Molecules are shown by their SMILES.

T1 sequence (Q9EPK8 whole entry): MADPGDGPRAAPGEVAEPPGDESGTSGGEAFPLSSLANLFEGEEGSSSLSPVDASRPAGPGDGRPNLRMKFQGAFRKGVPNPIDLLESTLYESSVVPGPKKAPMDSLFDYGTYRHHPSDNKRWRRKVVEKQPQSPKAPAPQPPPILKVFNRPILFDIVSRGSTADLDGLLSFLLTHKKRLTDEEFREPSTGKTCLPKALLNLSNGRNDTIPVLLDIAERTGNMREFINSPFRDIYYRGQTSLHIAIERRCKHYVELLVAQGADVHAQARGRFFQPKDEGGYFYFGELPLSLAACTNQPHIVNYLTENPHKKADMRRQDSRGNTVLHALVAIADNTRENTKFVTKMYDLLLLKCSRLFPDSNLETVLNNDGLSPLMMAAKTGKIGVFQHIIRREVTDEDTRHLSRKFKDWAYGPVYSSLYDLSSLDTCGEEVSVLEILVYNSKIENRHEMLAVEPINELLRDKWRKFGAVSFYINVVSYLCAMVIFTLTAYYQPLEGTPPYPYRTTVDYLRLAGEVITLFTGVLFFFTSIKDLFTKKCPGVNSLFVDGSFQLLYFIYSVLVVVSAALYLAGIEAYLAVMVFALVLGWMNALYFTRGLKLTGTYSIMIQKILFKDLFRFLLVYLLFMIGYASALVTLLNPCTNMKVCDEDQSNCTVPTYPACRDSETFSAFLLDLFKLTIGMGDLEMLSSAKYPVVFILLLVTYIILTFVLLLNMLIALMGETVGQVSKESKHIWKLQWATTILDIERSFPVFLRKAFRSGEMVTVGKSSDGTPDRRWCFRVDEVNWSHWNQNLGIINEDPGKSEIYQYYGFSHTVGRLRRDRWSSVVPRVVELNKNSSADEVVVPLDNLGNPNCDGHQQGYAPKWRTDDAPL

With `O=C(NC1(c2ccccc2)CC1)c1c(CN2CCC(N3CCCCC3)CC2)c(-c2cccc(C(F)(F)F)c2)nc2cc(Br)ccc12` [GSK2193874], at TRPV4, the “protection against acid-induced ALI” value is “protected against acid-induced ALI”.
For `CCCCCCCCCCCCCC(=O)O[C@@H]1[C@@H](C)[C@@]2(O)[C@@H](C=C(CO)C[C@]3(O)C(=O)C(C)=C[C@@H]23)[C@@H]2C(C)(C)[C@]12OC(C)=O` [PMA, Phorbol 12-myristate 13-acetate], the pT495-eNOS levels entry in assay [1] is on record as “increases in pT95-eNOS levels”. For the same compound, the “eNOS uncoupling (NOS derived superoxide)” value in the assay with NOS-derived superoxide was “eNOS uncoupling”. The “mitochondrial redistribution of eNOS” value in assay [2] is given as “induced the mitochondrial redistribution of eNOS”. Further, the “mitochondrial bioenergetics (OCR, reserve and maximal respiratory capacities)” value in the assay on PAEC is “disruption of mitochondrial bioenergetics”.

The record behind these values is US20240002437A1, “COMPOSITIONS AND METHODS OF TREATING INFLAMMATORY LUNG DISEASES” (priority 2020, published 2024).
